The text below walks through data of US20100254940A1, “Compositions and Methods for Regulating an Immune Response in a Subject” (INNATE PHARMA, S.A., priority 2002, published 2010).

For experiment [1], the system named is γδ T cells. The conditions noted are these: Wilhelm et al., 2003; cited from earlier work.
For experiment [2], the system named is γδ T cell. The experiment can be described thus: γδ T cell amplification from human PBMCs, counting γδ T cell using flow cytometry (given as in vivo EC50). It is filed as cell-based. The conditions noted are these: for EC50: γδ T cell amplification from human PBMCs, flow cytometry count. The method, then: The biological activity of γδ T cell amplification from human PBMCs was assessed by counting γδ T cell using flow cytometry.
In vitro proliferation assays and in vitro TNFα release assay are performed essentially as described in Example 3.

Experiment [3] concerns γδ T cells. Description: In vivo γδ T cell amplification after successive i.v. HDMAPP/IL2 injections in cynomolgus monkeys. Also on record: species or system cynomolgus monkeys (M. fascicularis). The note with it: day 5. On the procedure: Eight purpose bred healthy male cynomolgus monkeys (M. fascicularis). At the beginning of the study, body weights ranged from 3.5 to 4 kg and ages from 37 to 41 months.
Animals were anaesthetised with intra-muscular injection of 6 mg/kg Zoletil™ 100 (Tiletamine-Zolazepam, Virbac, Carros, France) before any perfusion.
HDMAPP was administered i.v. to male cynomolgus monkeys by 30-minute perfusions in a total volume of 50 ml with Ringer Lactate as vehicle. […]
The animals were co-treated subcutaneously with 0.6M IU IL2 in sterile water per day for 5 days.
Blood was drawn pre-dose and at day 4, 5, 7, 11 and 14 after HDMAPP perfusion for flow cytometry analysis of blood cellular populations of interest.
Peripheral γδ lymphocytes were analysed by flow cytometry on total monkey blood, after triple staining with anti-Vgamma9FITC, anti-CD3PE and anti-CD69PC5 antibodies (Vgamma9-FITC: 7B6 clone, produced, purified and FITC-coupled at Innate Pharma; CD3-PE: SP34 clone, BD Biosciences Pharmingen, Le Pont de Claix, France; CD69PC5: FN50 clone, Immunotech-Beckman-Coulter, Marseilles, France).
Briefly, 50 μl monkey blood was incubated 15 min at RT with 10 μl anti-gamma9-FITC, 5 μl anti-CD3-PE and 5 μl anti-CD69PC5 antibodies. Antibodies were washed with 3 ml 1×PBS, centrifuged for 4 min at 1300 rpm at RT and supernatant was discarded. Red cells were lysed with the OptiLyse C reagent (Immunotech-Beckman-Coulter, Marseilles, France) according to the manufacturer's instructions. At the final step, stained white blood cells were recovered by centrifugation and resuspended in 300 μl 1×PBS+0.2% PFA. Immediately before analysis, 50 μl calibrated Flow Count™ Fluorospheres (Immunotech-Beckman-Coulter, Marseilles, France) were added to the cells for absolute number counting of the populations of interest.

Experiment [4] deals with γδ T cell. The experiment can be described thus: In vitro TNFα release assay, γδ T cell amplification from human PBMCs (in the presence of rhIL2). The class given is cell-based. The method, then: The in vitro biological activity of γδ T cell amplification from human PBMCs (in the presence of rhIL2) was assessed using a TNFα release assay.
Cytokine secretion and cytolytic activity can be assessed using any appropriate in vitro assay, or those provided in the examples herein. For example, cytokine secretion can be determined according to the methods described in Espinosa et al. (J. Biol. Chem., 2001, Vol. 276, Issue 21, 18337-18344), describing measurement of TNF-α release in a bioassay using TNF-α-sensitive cells. Briefly, 10^4 γδT cells/well were incubated with stimulus plus 25 units of IL2/well in 100 μl of culture medium during 24 h at 37° C. Then, 50 μl of supernatant were added to 50 μl of WEHI cells plated at 3×10^4 cells/well in culture medium plus actinomycin D (2 μg/ml) and LiCl (40 mM) and incubated for 20 h at 37° C. Viability of the TNF-α-sensitive cells and measured with a 3-(4,5-dimethylthiazol-2-yl)-2,5-diphenyltetrazolium bromide assay. 50 μl of 3-(4,5-dimethylthiazol-2-yl)-2,5-diphenyltetrazolium bromide (Sigma; 2.5 mg/ml in phosphate-buffered saline) per well were added, and after 4 h of incubation at 37° C., 50 μl of solubilization buffer (20% SDS, 66% dimethyl formamide, pH 4.7) were added, and absorbance (570 nm) was measured. Levels of TNF-α release were then calculated from a standard curve obtained using purified human rTNF-α (PeproTech, Inc., Rocky Hill, N.J.). Interferon-γ released by activated T cells was measured by a sandwich enzyme-linked immunosorbent assay. 5×10^4 γδT cells/well were incubated with stimulus plus 25 units of IL2/well in 100 μl of culture medium during 24 h at 37° C. Then, 50 μl of supernatant were harvested for enzyme-linked immunosorbent assay using mouse monoclonal antibodies (BIOSOURCE, Camarillo, Calif.). […]
BrHPP and HDMAPP bioactivity were compared using in vitro and in vivo assays. The in vitro biological activity of γδ T cell amplification from human PBMCs (in the presence of rhIL2) was assessed using a TNFα release assay.

The subject of experiment [5] is Vγ9/Vδ2 T cells. The conditions noted are these: reported; cited from earlier work.

For `NCCC(O)(P(=O)(O)O)P(=O)(O)O` [pamidronate], the “increase in γδ T cell count” value in experiment [1] is no more than 2 fold.

In turn, `O=P(O)(O)C(O)(Cn1ccnc1)P(=O)(O)O` [Zoledronate®, reference compound] displayed an EC50 in experiment [2] of roughly 1000 nM.

For `C/C(=C\COP(=O)(O)OP(=O)(O)O)CO` [HDMAPP, (E)-4-hydroxy-3-methyl-2-butenyl pyrophosphate], the “γδ cells among CD3+” value is on record as “approx. 60%” in experiment [3] (first of 4 successive injections, 5 weeks apart, 2.6 mg/kg); roughly 40% in experiment [3] (fourth of 4 successive injections); roughly 55% in experiment [3] (second of 4 successive injections); “approx. 60%” in experiment [3] (third of 4 successive injections). Also, the difference in potency in experiment [4] (HDMAPP vs BrHPP, in vitro EC50) is roughly 50 fold; in experiment [2] (HDMAPP vs BrHPP), roughly 2 log. Besides, the EC50 is roughly 0.6 nM in experiment [4] (T-cell, TNFα release assay, human PBMCs, rhIL2); roughly 0.1 nM in experiment [5]; roughly 0.005 nM in experiment [2].

For orientation: EC50 means the midpoint of the concentration-response curve.
